Columns and labels:
[1] = target: T1, GABAA α3 receptors (Homo sapiens, UniProt P18507+P34903); conditions: cited from earlier work
T1 sequence (P34903 29-492): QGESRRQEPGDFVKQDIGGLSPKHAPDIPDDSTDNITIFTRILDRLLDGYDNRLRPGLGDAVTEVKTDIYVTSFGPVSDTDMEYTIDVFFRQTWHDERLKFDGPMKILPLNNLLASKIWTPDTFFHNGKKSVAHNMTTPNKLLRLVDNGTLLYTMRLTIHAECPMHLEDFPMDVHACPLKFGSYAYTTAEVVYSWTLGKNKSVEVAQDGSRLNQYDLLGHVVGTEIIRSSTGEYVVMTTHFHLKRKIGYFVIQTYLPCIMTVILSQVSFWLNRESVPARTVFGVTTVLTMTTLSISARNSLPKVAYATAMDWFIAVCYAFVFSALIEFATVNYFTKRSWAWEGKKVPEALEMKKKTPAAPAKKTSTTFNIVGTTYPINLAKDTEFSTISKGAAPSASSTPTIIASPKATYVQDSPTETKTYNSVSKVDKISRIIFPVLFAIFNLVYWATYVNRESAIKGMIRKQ
T1 sequence (P18507 40-467 limits assumed): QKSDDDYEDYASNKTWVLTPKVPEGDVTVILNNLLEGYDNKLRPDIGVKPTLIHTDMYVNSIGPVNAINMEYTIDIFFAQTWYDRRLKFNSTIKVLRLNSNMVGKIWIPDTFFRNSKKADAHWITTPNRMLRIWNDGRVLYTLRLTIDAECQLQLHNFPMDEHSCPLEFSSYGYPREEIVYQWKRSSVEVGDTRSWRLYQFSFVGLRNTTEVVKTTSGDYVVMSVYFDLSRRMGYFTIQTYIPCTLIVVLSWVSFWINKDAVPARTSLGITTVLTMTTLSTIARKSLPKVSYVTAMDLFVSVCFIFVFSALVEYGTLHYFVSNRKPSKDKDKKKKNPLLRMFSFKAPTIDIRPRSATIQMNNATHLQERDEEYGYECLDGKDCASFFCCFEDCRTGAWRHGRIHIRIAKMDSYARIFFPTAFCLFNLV
T1 sequence (P47870 25-512 partner limits assumed): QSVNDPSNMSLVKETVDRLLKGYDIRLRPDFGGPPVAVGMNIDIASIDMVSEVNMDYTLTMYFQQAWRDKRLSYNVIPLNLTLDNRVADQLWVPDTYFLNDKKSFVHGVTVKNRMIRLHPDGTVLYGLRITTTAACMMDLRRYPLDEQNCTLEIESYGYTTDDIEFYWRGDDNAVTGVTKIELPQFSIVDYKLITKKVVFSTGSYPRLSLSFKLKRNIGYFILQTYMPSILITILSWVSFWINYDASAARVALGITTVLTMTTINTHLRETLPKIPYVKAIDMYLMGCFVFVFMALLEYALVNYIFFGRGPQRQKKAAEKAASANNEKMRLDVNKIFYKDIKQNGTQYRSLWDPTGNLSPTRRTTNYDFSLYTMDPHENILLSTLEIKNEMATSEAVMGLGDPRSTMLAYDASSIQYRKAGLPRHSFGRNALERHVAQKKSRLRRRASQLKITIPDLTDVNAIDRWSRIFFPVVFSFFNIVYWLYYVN

[2] = test system: rodent anxiety models; conditions: in vivo; cited from earlier work
[3] = Metabolic stability in human liver microsomes; type: in vitro ADME; conditions: for % Parent Remaining (30 min) Ave ± SD: 2.0 mg/mL human liver microsomes, 2 mM NADPH, pH 7.4, 37° C., average of 3 experiments
Description: Human liver microsomes (20 mg/mL) were available from Xenotech, LLC (Lenexa, Kans.). β-nicotinamide adenine dinucleotide phosphate, reduced form (NADPH), magnesium chloride (MgCl2), and dimethyl sulfoxide (DMSO) are available from Sigma-Aldrich.
7.5 mM stock solutions of test compound 102 as well as of NS11394 were prepared in DMSO. The 7.5 mM stock solutions were diluted to 12.5 in acetonitrile (ACN). The 20 mg/mL human liver microsomes were diluted to 2.5 mg/mL in 0.1 M potassium phosphate buffer, pH 7.4, containing 3 mM MgCl2. The diluted microsomes were added to wells of a 96-well deep-well polypropylene plate in triplicate. A […] aliquot of the 12.5 test compound 102 was added to the microsomes and the mixture was pre-warmed for 10 minutes. Reactions were initiated by addition of pre-warmed NADPH solution. The final reaction volume was 0.5 mL and contained 2.0 mg/mL human liver microsomes, 0.25 test compound, and 2 mM NADPH in 0.1 M potassium phosphate buffer, pH 7.4, and 3 mM MgCl2. The reaction mixtures were incubated at 37° C., and […] aliquots were removed at 0, 5, 10, 20, and 30 minutes and added to shallow-well 96-well plates which contain […] of ice-cold ACN with internal standard to stop the reactions. The plates were stored at 4° C. for 20 minutes after which […] of water was added to the wells of the plate before centrifugation to pellet precipitated proteins. Supernatants were transferred to another 96-well plate and analyzed for amounts of parent remaining by LC-MS/MS using an AB SCIEX QTRAP® 5500. Testing was done in triplicate.
The in vitro t1/2s for test compounds were calculated from the slopes of the linear regression of % parent remaining (ln) vs incubation time relationship: in vitro t1/2=0.693/k k=−[slope of linear regression of % parent remaining (ln) vs incubation time]. Data analysis was performed using Microsoft Excel Software.
The testing was done in triplicate and the values shown in the table reflect the average of 3 experiments. […]

[4] = test system: inflammatory and neuropathic pain-like behaviors in animal models; conditions: cited from earlier work
[5] = animal models, oral administration

| % Parent Remaining (30 min) Ave ± SD [3] [%] | half-life ([3]; human, human liver microsomes, pH 7.4, in vitro t1/2 from linear regression of ln % parent remaining vs incubation time, NC = not calculable due to <20% metabolism in HLM, read-out: t1/2 (min) Ave ± SD) [min] | SMILES | efficacy at GABAA α3 receptors [1] | efficacy in rodent anxiety models [2] | reversal of inflammatory and neuropathic pain-like behaviors [4, 5] | tolerability [4, 5] | dependence issues ([4]; in vivo) |
| --- | --- | --- | --- | --- | --- | --- | --- |
| 77 ± 3.7 | 95 ± 35 | CC(C)(O)c1ccc2c(c1)ncn2-c1cccc(-c2ccccc2C#N)c1 [NS11394, 3′-[5-(1-hydroxy-1-methylethyl)-1H-benzimidazol-1-yl]biphenyl-2-carbonitrile] | high efficacy | potent and highly effective | completely reverse | well tolerated | No dependence issues were observed |
| 101 ± 8.7 |  | [2H]C([2H])([2H])C(O)(c1ccc2c(c1)ncn2-c1cccc(-c2ccccc2C#N)c1)C([2H])([2H])[2H] [Compound 102, 3′-(5-(2-Hydroxy-1,1,1,3,3,3-d6-propan-2-yl)-1H-benzo[d]imidazol-1-yl)biphenyl-2-carbonitrile] |  |  |  |  |  |
